Data reported in paper PMC11258486, “Phase 1 dose escalation study of the MDM2 inhibitor milademetan as monotherapy and in combination with azacitidine in patients with myeloid malignancies” (Cancer Medicine, 2024).
“And” between values parts separate entries of the source, which are not always exact repeats. Equal values may be shown once. Where a name gives a salt, the structure may show the parent alone.

Tested on: patients with relapsed or refractory acute myeloid leukemia or high‐risk myelodysplastic syndromes
Experimental: This was a phase 1, open‐label, non‐randomized dose escalation study of milademetan as monotherapy (Part 1) or in combination with AZA (Part 1A; ClinicalTrials.gov identifier: NCT02319369).
Dose escalation of milademetan to determine the maximum tolerated dose (MTD) was guided by a Bayesian logistic regression model (BLRM) following escalation with overdose control principle with a starting dose of 60 mg based on safety and tolerability data from the first‐in‐human study of milademetan in solid tumors or lymphoma.[20]
In Part 1, 9 escalating dose cohorts (Figure S1) were investigated.
In Part 1A, milademetan was given in combination with AZA (75 mg/m^2 dose administered subcutaneously or intravenously on Days 1–7) with 2 dosing schedules of milademetan: in Cohorts 10 and 12, milademetan was administered QD for 10 days (Days 5–14; 160 and 200 mg, respectively); in Cohorts 11 and 13 milademetan was given QD for 7 days (Days 8–14; 160 and 200 mg, respectively).
Safety was the primary endpoint of the study and included treatment‐emergent adverse events (TEAE), serious adverse events (SAE), dose‐limiting toxicities (DLT), physical examination findings, and clinical laboratory values. TEAE were categorized according to the Medical Dictionary for Regulatory Activities (MeDRA) v17.0 and graded according to the National Cancer Institute‐Common Terminology for Adverse Events (NCI‐CTCAE) v5.0. Participants were followed up until 30 days after completion of study treatment. A DLT was defined as any TEAE of grade ≥3 not attributable to disease or disease‐related processes occurring during Cycle 1 in each dose‐level cohort.
The final MTD for each dosing regimen (QD 21/28 dosing and others) was decided based on considerations of the respective MTD estimated by the BLRM and on an overall assessment of safety data from subsequent cycles and pharmacokinetics (PK)/pharmacodynamics (PD) information collected at all different doses tested.
Cohorts of ≥3 DLT evaluable participants were enrolled per dose level, and the dose escalation decisions were guided by BLRM, governed by escalation with overdose control principle.

[1] = not assessed as related to milademetan

With `CC1(C)CCC2(CC1)N[C@@H](C(=O)N[C@@H]1CC[C@@H](C(N)=O)OC1)[C@H](c1ccnc(Cl)c1F)[C@]21C(=O)Nc2cc(Cl)ccc21` [Milademetan monotherapy, milademetan tosylate hydrate] the “Abdominal pain, TEAE Grade ≥3” value (human, in vivo) was 1 (2) n (%), the “Cough, TEAE Grade ≥3” value (human, in vivo) was 0 n (%) and the “Cough, TEAE all grades” value (human, in vivo) was 3 (5) n (%). The “Decreased appetite, TEAE Grade ≥3” value (human, in vivo) was 1 (2) n (%), the “Decreased appetite, TEAE all grades” value (human, in vivo) was 13 (23) n (%) and the “Dehydration, TEAE Grade ≥3” value (human, in vivo) was 1 (2) n (%). The “Dehydration, TEAE all grades” value (human, in vivo) was 6 (11) n (%), the “Depression, TEAE Grade ≥3” value (human, in vivo) was 0 n (%) and the “Depression, TEAE all grades” value (human, in vivo) was 2 (4) n (%). The “Device‐related infection, TEAE Grade ≥3” value (human, in vivo) was 0 n (%), the “Device‐related infection, TEAE all grades” value (human, in vivo) was 0 n (%) and the “Diarrhea, TEAE Grade ≥3” value (human, in vivo) was 3 (5) n (%). The “Diarrhea, TEAE all grades” value (human, in vivo) was 32 (56) n (%), the “Diarrhea, most common (>20%) TEAE” value (human, in vivo) was 25 [44%] n [%] and the “Dizziness, TEAE Grade ≥3” value (human, in vivo) was 1 (2) n (%). The “Dizziness, TEAE all grades” value (human, in vivo) was 6 (11) n (%), the “Dyspnea, TEAE Grade ≥3” value (human, in vivo) was 0 n (%) and the “Dyspnea, TEAE all grades” value (human, in vivo) was 8 (14) n (%). The “Epistaxis, TEAE Grade ≥3” value (human, in vivo) was 0 n (%), the “Epistaxis, TEAE all grades” value (human, in vivo) was 1 (2) n (%) and the “Escherichia infection, TEAE Grade ≥3” value (human, in vivo) was 0 n (%). For the same compound, the “Escherichia infection, TEAE all grades” value (human, in vivo) was 0 n (%), the “Fatigue, TEAE Grade ≥3” value (human, in vivo) was 4 (7) n (%) and the “Hyperuricemia, TEAE Grade ≥3” value (human, in vivo) was 2 (4) n (%). The “Hyperuricemia, TEAE all grades” value (human, in vivo) was 6 (11) n (%), the “Hypokalemia, TEAE Grade ≥3” value (human, in vivo) was 3 (5) n (%) and the “Hypokalemia, TEAE all grades” value (human, in vivo) was 12 (21) n (%). For the same compound, the “Hypomagnesemia, TEAE Grade ≥3” value (human, in vivo) was 0 n (%), the “Hypomagnesemia, TEAE all grades” value (human, in vivo) was 9 (16) n (%) and the “Hyponatremia, TEAE Grade ≥3” value (human, in vivo) was 2 (4) n (%). For the same compound, the “Hyponatremia, TEAE all grades” value (human, in vivo) was 2 (4) n (%), the “Hypophosphatemia, TEAE Grade ≥3” value (human, in vivo) was 0 n (%) and the “Hypophosphatemia, TEAE all grades” value (human, in vivo) was 0 n (%). For the same compound, the “Hypotension, TEAE Grade ≥3” value (human, in vivo) was 2 (4) n (%), the “Hypotension, TEAE all grades” value (human, in vivo) was 9 (16) n (%) and the “Increased ALT, TEAE Grade ≥3” value (human, in vivo) was 0 n (%). For the same compound, the “Increased ALT, TEAE all grades” value (human, in vivo) was 1 (2) n (%), the “Insomnia, TEAE Grade ≥3” value (human, in vivo) was 0 n (%) and the “Insomnia, TEAE all grades” value (human, in vivo) was 4 (7) n (%). For the same compound, the “Lung infection, TEAE Grade ≥3” value (human, in vivo) was 11 (19) n (%), the “Lung infection, TEAE all grades” value (human, in vivo) was 11 (19) n (%) and the “Maculopapular rash, TEAE Grade ≥3” value (human, in vivo) was 0 n (%). The “Maculopapular rash, TEAE all grades” value (human, in vivo) was 2 (4) n (%), the “Muscular weakness, TEAE all grades” value (human, in vivo) was 2 (4) n (%) and the “Myalgia, TEAE Grade ≥3” value (human, in vivo) was 0 n (%). The “Myalgia, TEAE all grades” value (human, in vivo) was 1 (2) n (%), the “Nausea, TEAE Grade ≥3” value (human, in vivo) was 4 (7) n (%) and the “Nausea, TEAE all grades” value (human, in vivo) was 39 (68) n (%). For the same compound, the “Nausea, most common (>20%) TEAE” value (human, in vivo) was 32 [56%] n [%], the “Neutropenia, TEAE Grade ≥3” value (human, in vivo) was 10 (18) n (%) and the “Neutropenia, TEAE all grades” value (human, in vivo) was 10 (18) n (%). For the same compound, the “Oropharyngeal pain, TEAE Grade ≥3” value (human, in vivo) was 0 n (%), the “Oropharyngeal pain, TEAE all grades” value (human, in vivo) was 3 (5) n (%) and the “Pancytopenia, TEAE Grade ≥3” value (human, in vivo) was 0 n (%). For the same compound, the “Pancytopenia, TEAE all grades” value (human, in vivo) was 0 n (%), the “Participants with DLT of cellulitis” value (human, in vivo) was 1 participant and the “Participants with DLT of diarrhea” value (human, in vivo) was 1 participant. For the same compound, the “Participants with DLT of fatigue” value (human, in vivo) was 1 participant, the “Participants with DLT of hypokalemia” value (human, in vivo) was 1 participant and the “Participants with DLT of nausea” value (human, in vivo) was 3 participants. For the same compound, the “Participants with DLT of renal failure” value (human, in vivo) was 1 participant, the “Participants with DLT of vomiting” value (human, in vivo) was 1 participant and the “Peripheral edema, TEAE Grade ≥3” value (human, in vivo) was 0 n (%). For the same compound, the “Peripheral edema, TEAE all grades” value (human, in vivo) was 14 (25) n (%), the “Pneumonia, TEAE Grade ≥3” value (human, in vivo) was 6 (11) n (%) and the “Pneumonia, TEAE all grades” value (human, in vivo) was 9 (16) n (%). For the same compound, the “Pyrexia, TEAE Grade ≥3” value (human, in vivo) was 1 (2) n (%), the “Pyrexia, TEAE all grades” value (human, in vivo) was 5 (9) n (%) and the “Rhinorrhea, TEAE Grade ≥3” value (human, in vivo) was 0 n (%). The “Rhinorrhea, TEAE all grades” value (human, in vivo) was 1 (2) n (%), the SAE (human, in vivo) was 39 (68.4) n (%) and the “SAE: bacteremia” value (human, in vivo) was 3 [5%] n [%]. The “SAE: cellulitis” value (human, in vivo) was 3 [5%] n [%], the “SAE: febrile neutropenia” value (human, in vivo) was 5 [9%] n [%] and the “SAE: lung infection” value (human, in vivo) was 9 [16%] n [%]. For the same compound, the “SAE: pneumonia” value (human, in vivo) was 7 [12%] n [%], the “SAE: pyrexia” value (human, in vivo) was 3 [5%] n [%] and the “SAE: sepsis” value (human, in vivo) was 7 [12%] n [%]. The “Sepsis, TEAE Grade ≥3” value (human, in vivo) was 8 (14) n (%), the “Sepsis, TEAE all grades” value (human, in vivo) was 8 (14) n (%) and the “Tolerability relative to MTD” value (human, in vivo) was “exceeded MTD”. For the same compound, the “Vomiting, most common (>20%) TEAE” value (human, in vivo) was 15 [26%] n [%], the “Participants who experienced DLT” value (in vivo) was “Eight” and the “Dose interruptions due to TEAE” value (monotherapy arm) was 12 (21%) n (%). For the same compound, the “Dose reductions due to TEAE” value (monotherapy arm) was 3 (5%) n (%), the “Maximum tolerated dose (MTD) of milademetan” value (monotherapy, QD 21/28 and QD 14/28 dosing schedules) was 160 mg and the “Event associated with a fatal outcome: intracranial hemorrhage” value [1] was 1 patient. For the same compound, the “Event associated with a fatal outcome: lung infection” value [1] was 2 patients, the “Event associated with a fatal outcome: multi-organ failure” value [1] was 1 patient and the “Event associated with a fatal outcome: pneumonia” value [1] was 1 patient. The “Event associated with a fatal outcome: respiratory failure” value [1] was 1 patient, the “Event associated with a fatal outcome: sepsis” value [1] was 4 patients and the “Milademetan-related TEAE” value (per investigator assessment, safety analysis set) was 47 (82.5) n (%). For the same compound, the “Abdominal pain, TEAE all grades” value (safety analysis set) was 7 (12) n (%), the “Anemia, TEAE Grade ≥3” value (safety analysis set) was 9 (16) n (%) and the “Anemia, TEAE all grades” value (safety analysis set) was 13 (23) n (%). For the same compound, the “Any TEAE, Grade ≥3” value (safety analysis set) was 48 (84%) n (%) and 48 (84) n (%) and 48 (84.2) n (%), the “Any TEAE, all grades” value (safety analysis set) was 57 n (%) and 57 (100) n (%) and the “Arthralgia, TEAE Grade ≥3” value (safety analysis set) was 0 n (%). For the same compound, the “Arthralgia, TEAE all grades” value (safety analysis set) was 3 (5) n (%), the “Asthenia, TEAE Grade ≥3” value (safety analysis set) was 1 (2) n (%) and the “Asthenia, TEAE all grades” value (safety analysis set) was 7 (12) n (%). For the same compound, the “Constipation, TEAE Grade ≥3” value (safety analysis set) was 0 n (%), the “Constipation, TEAE all grades” value (safety analysis set) was 3 (5) n (%) and the “Contusion, TEAE Grade ≥3” value (safety analysis set) was 0 n (%). The “Contusion, TEAE all grades” value (safety analysis set) was 2 (4) n (%), the “Fatigue, TEAE all grades” value (safety analysis set) was 20 (35) n (%) and the “Febrile neutropenia, TEAE Grade ≥3” value (safety analysis set) was 5 (9) n (%). For the same compound, the “Febrile neutropenia, TEAE all grades” value (safety analysis set) was 6 (11) n (%), the “Fluid overload, TEAE Grade ≥3” value (safety analysis set) was 0 n (%) and the “Fluid overload, TEAE all grades” value (safety analysis set) was 2 (4) n (%). The “Fungal pneumonia, TEAE Grade ≥3” value (safety analysis set) was 2 (4) n (%), the “Fungal pneumonia, TEAE all grades” value (safety analysis set) was 2 (4) n (%) and the “Headache, TEAE Grade ≥3” value (safety analysis set) was 0 n (%). For the same compound, the “Headache, TEAE all grades” value (safety analysis set) was 2 (4) n (%), the “Hemorrhoids, TEAE Grade ≥3” value (safety analysis set) was 1 (2) n (%) and the “Hemorrhoids, TEAE all grades” value (safety analysis set) was 3 (5) n (%). For the same compound, the “Malaise, TEAE Grade ≥3” value (safety analysis set) was 0 (0) n (%), the “Malaise, TEAE all grades” value (safety analysis set) was 6 (11) n (%) and the “Milademetan-related Grade ≥3 TEAE” value (safety analysis set) was 19 (33%) n (%) and 19 (33.3) n (%). For the same compound, the “Milademetan-related SAE” value (safety analysis set) was 7 (12%) n (%) and 7 (12.3) n (%), the “Milademetan-related TEAE associated with milademetan discontinuation” value (safety analysis set) was 5 (8.8) n (%) and the “Muscular weakness, TEAE Grade ≥3” value (safety analysis set) was 0 n (%). For the same compound, the “TEAE associated with death” value (safety analysis set) was 9 (16%) n (%) and 9 (15.8)^a n (%), the “TEAE associated with milademetan discontinuation” value (safety analysis set) was 13 (23%) n (%) and 13 (22.8) n (%) and the “Thrombocytopenia, TEAE Grade ≥3” value (safety analysis set) was 15 (26) n (%). For the same compound, the “Thrombocytopenia, TEAE all grades” value (safety analysis set) was 15 (26) n (%), the “Vomiting, TEAE Grade ≥3” value (safety analysis set) was 2 (4) n (%) and the “Vomiting, TEAE all grades” value (safety analysis set) was 24 (42) n (%).
